Drawing on patent US12473289B2, “Heterocyclic compounds as delta-5 desaturase inhibitors and methods of use” (Amgen Inc., priority 2019, dated 2025), this text covers IC50 for 13 compounds.

For this test, the target named is Delta-5-Desaturase (D5D) (Homo sapiens (Human), UniProt O60427). Description: In vitro measurement of Delta-5-Desaturase inhibitory activity using DGLA-CoA and Arachidonyl-CoA mass spectrometric assays. The test is classed as biochemical. The note with it: membrane preparations of D5D-overexpressing HEK293 6E cells; averaged over at least two independent runs. The method in brief: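 DGLA-CoA and arachidonyl-CoA were read by RapidFire SPE triple-quad MS (negative mode, MRM) after a 1 h ambient-temperature reaction quenched with acetonitrile. Enzyme was D5D-overexpressing HEK293 6E membranes at 10 μg/mL final; substrate solution held 0.01 mM DGLA plus NADH, ATP and CoA. Inhibition was referenced to DMSO and no-enzyme wells; 4PL IC50.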
Sequence of Delta-5-Desaturase (D5D) (O60427 whole entry, species assumed): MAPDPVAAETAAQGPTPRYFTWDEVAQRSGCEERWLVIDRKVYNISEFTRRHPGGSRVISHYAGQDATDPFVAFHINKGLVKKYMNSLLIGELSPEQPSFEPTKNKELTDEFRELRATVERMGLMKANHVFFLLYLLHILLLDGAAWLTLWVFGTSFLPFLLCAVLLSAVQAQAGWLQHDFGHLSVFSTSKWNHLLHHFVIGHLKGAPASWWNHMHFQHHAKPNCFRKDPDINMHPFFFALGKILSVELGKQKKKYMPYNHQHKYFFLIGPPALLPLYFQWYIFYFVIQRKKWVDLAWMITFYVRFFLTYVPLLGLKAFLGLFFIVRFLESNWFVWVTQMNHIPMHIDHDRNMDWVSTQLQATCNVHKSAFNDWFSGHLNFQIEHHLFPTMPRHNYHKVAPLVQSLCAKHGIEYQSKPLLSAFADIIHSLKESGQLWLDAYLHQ

Consider `CS(=O)(=O)c1ccn2c(=O)c(-c3ccc(OCC(F)(F)F)cc3)c(C(F)(F)F)nc2c1` [Example 19, 8-(Methylsulfonyl)-3-(4-(2,2,2-trifluoroethoxy)phenyl)-2-(trifluoromethyl)-4H-pyrido[1,2-a]pyrimidin-4-one], for which the IC50 – broadly, the concentration that gives 50% inhibition – was found to be 10100 nM.

Consider `Cc1cnn2c(=O)c(-c3cnn(CC4CC4)c3)c(C(F)(F)F)nc2c1` [Example 39-51, 3-[1-(cyclopropylmethyl)-1H-pyrazol-4-yl]-8-methyl-2-(trifluoromethyl)-4H-pyrimido[1,2-b]pyridazin-4-one], for which 74.3 nM corresponded to half-maximal inhibition (IC50).

`COc1ccn2c(=O)c(-c3ccc(CC#N)cc3)c(C(F)(F)F)nc2c1` [Example 1-2, (4-(8-methoxy-4-oxo-2-(trifluoromethyl)-4H-pyrido[1,2-a]pyrimidin-3-yl)phenyl)acetonitrile] yielded an IC50 of 305 nM.

In turn, `COc1ccc2nc(C(F)(F)F)c(-c3cnn(CC(F)(F)C(F)(F)F)c3)c(=O)n2c1` [Example 39-6, 7-methoxy-3-[1-(2,2,3,3,3-pentafluoropropyl)-1H-pyrazol-4-yl]-2-(trifluoromethyl)-4H-pyrido[1,2-a]pyrimidin-4-one] gave an IC50 of 115 nM. This IC50 lies about 2.7-fold lower than the previous one.

Take `COc1ccn2c(=O)c(-c3cnn(CCCC(F)(F)F)c3)c(C(F)F)nc2c1` [Example 1-16, 2-(difluoromethyl)-8-methoxy-3-(1-(4,4,4-trifluorobutyl)-1H-pyrazol-4-yl)-4H-pyrido[1,2-a]pyrimidin-4-one]: the IC50 amounted to 383 nM.

Compound `COc1nc2nc(C(F)(F)F)c(-c3cnn(CC(F)(F)C(F)(F)F)c3)c(=O)n2cc1F` [Example 42, 7-Fluoro-8-methoxy-3-[1-(2,2,3,3,3-pentafluoropropyl)-1H-pyrazol-4-yl]-2-(trifluoromethyl)-4H-[1,3]diazino[1,2-a]pyrimidin-4-one] gave an IC50 of 168 nM.

In turn, `COc1ccn2c(=O)c(-c3cnn(CC(F)(F)C(F)(F)F)c3)c(C(F)(F)F)nc2c1Cl` [Example 39-3, 9-chloro-8-methoxy-3-[1-(2,2,3,3,3-pentafluoropropyl)-1H-pyrazol-4-yl]-2-(trifluoromethyl)-4H-pyrido[1,2-a]pyrimidin-4-one] registered an IC50 of 188 nM.

`O=C(O)c1ccn2c(=O)c(-c3ccc(OCC(F)(F)F)cc3)c(C(F)(F)F)nc2c1` [Example 2-2, 4-oxo-3-(4-(2,2,2-trifluoroethoxy)phenyl)-2-(trifluoromethyl)-4H-pyrido[1,2-a]pyrimidine-8-carboxylic acid] yielded an IC50 of 646 nM.

As for `Cc1cn2c(=O)c(-c3cnn(CC(F)(F)C(F)(F)F)c3)c(C(F)(F)F)nc2c(C)n1` [Example 39-43, 7,9-dimethyl-3-[1-(2,2,3,3,3-pentafluoropropyl)-1H-pyrazol-4-yl]-2-(trifluoromethyl)-4H-pyrazino[1,2-a]pyrimidin-4-one], the IC50 worked out at 179 nM.

With `NCc1ccn2c(=O)c(-c3cnn(CC(F)(F)C(F)(F)F)c3)c(C(F)(F)F)nc2c1` [Example 16-2, 8-(aminomethyl)-3-(1-(2,2,3,3,3-pentafluoropropyl)-1H-pyrazol-4-yl)-2-(trifluoromethyl)-4H-pyrido[1,2-a]pyrimidin-4-one], it took 137 nM to reach half-maximal inhibition (IC50).

The compound `COc1ccn2c(=O)c(-c3cnn(CCCC(F)(F)F)c3)c(C(F)(F)F)nc2n1` [Example 1-38, 8-methoxy-3-(1-(4,4,4-trifluorobutyl)-1H-pyrazol-4-yl)-2-(trifluoromethyl)-4H-pyrimido[1,2-a]pyrimidin-4-one] came in with an IC50 of 180 nM.

The compound `CSc1ccn2c(=O)c(-c3cnn(CC(F)(F)C(F)(F)F)c3)c(C(F)(F)F)nc2c1` [Example 1-30, 8-(methylsulfanyl)-3-(1-(2,2,3,3,3-pentafluoropropyl)-1H-pyrazol-4-yl)-2-(trifluoromethyl)-4H-pyrido[1,2-a]pyrimidin-4-one] returned an IC50 of 18.8 nM.

`COc1ccn2c(=O)c(-c3ccc(O[C@H](C)C#N)cc3)c(C(F)(F)F)nc2n1` [Example 8-6, (2R)-2-(4-(8-methoxy-4-oxo-2-(trifluoromethyl)-4H-pyrimido[1,2-a]pyrimidin-3-yl)phenoxy)propanenitrile] registered an IC50 of 23.5 nM.
